{
  "source": "paper PMC12686243",
  "about": "“Synthesis and preclinical evaluation of FAP-targeting radiotracers for PET and optical imaging” (EJNMMI Radiopharmacy and Chemistry, 2025)",
  "molecular_target": "T1, hFAP (hFAP-HT1080 cells) (Homo sapiens, UniProt Q12884)",
  "T1 construct": "expressed in transfected cells; host or cells: HT1080 (human fibrosarcoma), lentiviral transduction",
  "T1 sequence (Q12884 1-760)": "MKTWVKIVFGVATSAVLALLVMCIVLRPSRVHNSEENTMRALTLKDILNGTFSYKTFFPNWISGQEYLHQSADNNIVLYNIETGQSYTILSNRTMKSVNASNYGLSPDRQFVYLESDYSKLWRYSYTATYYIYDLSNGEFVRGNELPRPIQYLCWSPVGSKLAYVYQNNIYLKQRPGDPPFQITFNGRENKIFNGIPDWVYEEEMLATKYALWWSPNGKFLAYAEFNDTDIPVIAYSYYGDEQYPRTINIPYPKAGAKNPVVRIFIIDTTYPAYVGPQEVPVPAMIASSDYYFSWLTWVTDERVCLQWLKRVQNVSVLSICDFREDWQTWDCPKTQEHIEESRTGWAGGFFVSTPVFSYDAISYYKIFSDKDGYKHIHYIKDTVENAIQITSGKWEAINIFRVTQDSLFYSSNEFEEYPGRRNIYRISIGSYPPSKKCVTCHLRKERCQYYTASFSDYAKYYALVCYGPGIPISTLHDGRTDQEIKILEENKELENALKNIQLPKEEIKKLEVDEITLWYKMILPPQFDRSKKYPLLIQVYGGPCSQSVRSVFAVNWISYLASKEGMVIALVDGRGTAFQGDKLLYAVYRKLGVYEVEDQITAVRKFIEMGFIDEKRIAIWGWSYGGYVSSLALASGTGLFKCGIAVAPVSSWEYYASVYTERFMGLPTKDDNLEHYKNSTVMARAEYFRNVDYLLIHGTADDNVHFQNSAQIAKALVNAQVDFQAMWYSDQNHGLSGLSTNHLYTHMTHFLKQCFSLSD",
  "assay": "saturation binding to hFAP-HT1080 cells",
  "conditions": "60 min, 37 °C",
  "procedure": "Saturation binding (n ≥ 3, in triplicates) was performed to estimate thermodynamic dissociation constants (KD) and number of binding sites (Bmax). hFAP-HT1080 were cultured under the conditions described above. On the day of the experiment, 48-well plates were kept at 37 °C in an incubation chamber. The medium was replaced with 200 µL CO2-independent medium, (Gibco #18045088, ThermoFisher Germany) for total binding (TB) conditions. For the assessment of nonspecific binding (NSB), the same medium was used, containing 14 µM of FAPI-04 (in DMSO, resulting in 0.007% v/v). After 15 min preincubation for TB/NSB, 200 µL of each eight serial 1:1 dilutions (75 to 0.12 nM) of the respective radioligand were added (in triplicate), resulting in a final concentration per well of 35–0.06 nM. Cells were incubated with the respective radioligand for 60 min at 37 °C. The incubation medium was discarded and the wells washed with ice-cold PBS (2x ~ 30 s). The cells were then lysed with 500 µL 0.1 M NaOH + 1% SDS. For radioactivity detection, 400 µL of lysate was measured in a gamma counter (Perkin Elmer Wizard 1480). Additionally, binding to polystyrene in absence of cells was determined in 400 µL of lysate, along with the activity of all dilutions (50 µL). However, intrinsic plastic adherence of both compounds was very low. All counts were decay-corrected to a reference time (end of radiolabeling). Protein content was determined in an additional plate, subjected to the same conditions (pre-incubation, incubation and washing) by BCA assay and a mean value (µg/mL) used for this particular dataset (all replicate plates). From CPM measurements, final values (pmol/mg protein) were calculated using mean protein content and molar activity. Similarly, lysates from a random plate were subjected to fluorescent detection. For that purpose, 100 µL were pipetted bubble free into a transparent bottom 96 well imaging plate (Greiner Bio-One, µclear #655087). The plate was then imaged on a Typhoon 9500 bio imager (GE, USA) using either the Cy5 or IR-long filter-set (350–500 PMT voltage). From these images, fluorescence density (counts/mm^2) was determined (Bio-Rad, Quantity One 4.6.8). All processed data was then subjected to non-linear iterative curve fitting (GraphPad Prism 10) to yield Bmax (in pmol/mg protein or CNT/mm^2) and KD (in nM).",
  "key": {"[1]": {"conditions": "n = 1, read-out: KD, fluorescent label detection, best fit"}, "[2]": {"conditions": "nonspecific binding with 14 µM FAPI-04, n = 3"}, "[3]": {"conditions": "nonspecific binding with 14 µM FAPI-04, n = 3, read-out: KD, radioactive label detection, best fit"}},
  "note": "pKd: −log10 of the molar value. Read-outs that look alike come from different tables or passages of the source.",
  "data": [
    {"smiles": "CN(CCCN1CCN(C(=O)[C@H](CCCCNC(=O)CC[C@H](C(=O)[O-])N2CCN(CC(=O)[O-])CCN(CC(=O)[O-])CC2)NC(=O)CCOCCOCCOCCOCCNC(=O)CCCCCN2C(=CC=C3CCCC(C=CC4=[N+](CCCCS(=O)(=O)[O-])c5ccc(S(=O)(=O)O)cc5C4(C)C)=C3Oc3ccc(S(=O)(=O)O)cc3)C(C)(C)c3cc(S(=O)(=O)O)ccc32)CC1)c1ccc2nccc(C(=O)NCC(=O)N3CC(F)(F)C[C@H]3C#N)c2c1.[68Ga+3]", "note": "[[^68Ga]Ga-NODAGA-FAP800]", "values": [
      {"measurement": "Bmax, fluorescent label detection, best fit", "setting": "n = 1", "value": "5.7 * 10^5 AU"},
      {"measurement": "pKd", "setting": "[1]", "value": 8.91},
      {"measurement": "Bmax, radioactive label detection, best fit", "setting": "[2]", "value": 1.41, "unit": "pmol/mg/protein"},
      {"measurement": "pKd", "setting": "[3]", "value": 8.78}
    ]},
    {"smiles": "CN(CCCN1CCN(C(=O)[C@H](CCCCNC(=O)CC[C@H](C(=O)[O-])N2CCN(CC(=O)[O-])CCN(CC(=O)[O-])CC2)NC(=O)CCOCCOCCOCCOCCNC(=O)CCCCC[N+]2=C(C=CC=CC=C3N(CCCS(=O)(=O)O)c4ccc(S(=O)(=O)O)cc4C3(C)C)C(C)(CCCS(=O)(=O)O)c3cc(S(=O)(=O)[O-])ccc32)CC1)c1ccc2nccc(C(=O)NCC(=O)N3CC(F)(F)C[C@H]3C#N)c2c1.[68Ga+3]", "note": "(some centres unmarked) [[^68Ga]Ga-NODAGA-FAP647]", "values": [
      {"measurement": "Bmax, fluorescent label detection, best fit", "setting": "n = 1", "value": "4.8 * 10^5 AU"},
      {"measurement": "pKd", "setting": "[1]", "value": 9.12},
      {"measurement": "Bmax, radioactive label detection, best fit", "setting": "[2]", "value": 1.63, "unit": "pmol/mg/protein"},
      {"measurement": "pKd", "setting": "[3]", "value": 9.00}
    ]}
  ]
}
